# Assay results as given in patent publication EP0908457B1, “3-(1,2-benzisothiazol- and isoxazol-5-Y1)-2,4(1H,3H)-pyrimidinedione or thione and 3-(1,2-benzisothiazol- and isoxazol-5-y1)-4(3H)-pyrimidinone or thione herbicidal agents” (BASF AKTIENGESELLSCHAFT, priority 1997, dated 1999).
# How the values were obtained:
# [1] = test system: Monochoria vaginalis, Presl.; experiment: Preemergence weed control under flooded paddy conditions, MOOVA (Monochoria); assay type: in vivo; settings: flooded paddy; for MOOVA: herbicidal effect rating 0-9, three to four weeks after treatment; for herbicidal effect rating, MOOVA: meaning of each grade not given here
# [2] = test system: Cyperus serotinus, Rottb.; experiment: Preemergence weed control under flooded paddy conditions, CYPSE (Flatsedge); assay type: in vivo; settings: for CYPSE: herbicidal effect rating 0-9, three to four weeks after treatment; for herbicidal effect rating, CYPSE: meaning of each grade not given here
# Cyperus iria = experiment: Preemergence weed control under flooded paddy conditions, CYPIR (Rice Flatsedge); assay type: in vivo; settings: flooded paddy; for CYPIR: herbicidal effect rating 0-9, three to four weeks after treatment; for herbicidal effect rating, CYPIR: meaning of each grade not given here
# [3] = test system: Oryza sativa, (L.) Tebonnet; experiment: Rice tolerance to post-transplant applications under flooded paddy conditions (Example 187), ORYSAT (Rice, Tebonnet); settings: for ORYSAT: herbicidal effect rating 0-9, three to four weeks after treatment; for herbicidal effect rating ORYSAT: meaning of each grade not given here
# Sagittaria pygmaea, L. = experiment: Preemergence weed control under flooded paddy conditions, SAGPY (Arrowhead (Pygmaea)); assay type: in vivo; settings: flooded paddy; for SAGPY: herbicidal effect rating 0-9, three to four weeks after treatment; for herbicidal effect rating, SAGPY: meaning of each grade not given here
# [4] = test system: Echinochloa oryzoides (Ard.) Fritsch.; experiment: Preemergence weed control under flooded paddy conditions, ECHORC (Watergrass (Calif.)); assay type: in vivo; settings: flooded paddy; for ECHORC: herbicidal effect rating 0-9, three to four weeks after treatment; for herbicidal effect rating, ECHORC: meaning of each grade not given here
# [5] = Rate 0.0320 kg/ha, preemergence, rated 3-4 weeks after treatment
# [6] = Rate 0.0620 kg/ha, preemergence, rated 3-4 weeks after treatment
# [7] = Rate 0.1250 kg/ha, preemergence, rated 3-4 weeks after treatment
# [8] = Rate 0.2500 kg/ha, preemergence, rated 3-4 weeks after treatment
# [9] = Rate 0.5000 kg/ha, preemergence, rated 3-4 weeks after treatment
# [10] = Rate 0.0320 kg/ha, rated 3-4 weeks after treatment
# [11] = Rate 0.0620 kg/ha, rated 3-4 weeks after treatment
# [12] = Rate 0.1250 kg/ha, rated 3-4 weeks after treatment
# [13] = Rate 0.2500 kg/ha, rated 3-4 weeks after treatment
# [14] = Rate 0.5000 kg/ha, rated 3-4 weeks after treatment
# [15] = 0.0320 kg/ha, preemergence weeds
# [16] = 0.0620 kg/ha, preemergence weeds
# [17] = 0.1250 kg/ha, preemergence weeds
# [18] = 0.2500 kg/ha, preemergence weeds
# [19] = Rate 0.2500 kg/ha, preemergence weeds, rated three to four weeks after treatment
# [20] = Rate 0.2500 kg/ha, rated three to four weeks after treatment
# [21] = Rate 0.0320 kg/ha, preemergence, rated three to four weeks after treatment
# [22] = Rate 0.0620 kg/ha, preemergence, rated three to four weeks after treatment
# [23] = Rate 0.2500 kg/ha, preemergence, rated three to four weeks after treatment
# [24] = Rate 0.1250 kg/ha, preemergence, rated three to four weeks after treatment
structure (smiles),measurement,setting,value
"CCCS(=O)(=O)NC(=O)COc1ccc(C)cc1-c1nsc2ccc(-n3c(=O)cc(C(F)(F)F)n(C)c3=O)cc12 [Example 552, Acetamide, 2-{{2-{5-[3,6-dihydro-3-methyl-2,6-dioxo-4-(trifluoromethyl)-1(2H)-pyrimidinyl]-1,2-benzisothiazol-3-yl}-p-tolyl}oxy}-N-(propylsulfonyl)-]","herbicidal effect rating, MOOVA",[1]; [5],6.0
same,"herbicidal effect rating, MOOVA",[1]; [6],8.0
same,"herbicidal effect rating, MOOVA",[1]; [7],9.0
same,"herbicidal effect rating, MOOVA",[1]; [8],9.0
same,"herbicidal effect rating, MOOVA",[1]; [9],9.0
same,"herbicidal effect rating, CYPSE",[2]; [5],0.0
same,"herbicidal effect rating, CYPSE",[2]; [7],4.0
same,"herbicidal effect rating, CYPSE",[2]; [8],9.0
same,"herbicidal effect rating, CYPSE",[2]; [9],9.0
same,"herbicidal effect rating, CYPIR",Cyperus iria; [5],6.0
same,"herbicidal effect rating, CYPIR",Cyperus iria; [6],8.0
same,"herbicidal effect rating, CYPIR",Cyperus iria; [7],7.0
same,"herbicidal effect rating, CYPIR",Cyperus iria; [8],9.0
same,"herbicidal effect rating, CYPIR",Cyperus iria; [9],9.0
same,herbicidal effect rating ORYSAT,[3]; [10],4.0
same,herbicidal effect rating ORYSAT,[3]; [11],6.0
same,herbicidal effect rating ORYSAT,[3]; [12],6.0
same,herbicidal effect rating ORYSAT,[3]; [13],7.0
same,herbicidal effect rating ORYSAT,[3]; [14],4.0
same,"herbicidal effect rating, SAGPY","Sagittaria pygmaea, L.; [5]",0.0
same,"herbicidal effect rating, SAGPY","Sagittaria pygmaea, L.; [6]",0.0
same,"herbicidal effect rating, SAGPY","Sagittaria pygmaea, L.; [7]",0.0
same,"herbicidal effect rating, SAGPY","Sagittaria pygmaea, L.; [8]",0.0
same,"herbicidal effect rating, SAGPY","Sagittaria pygmaea, L.; [9]",5.0
same,"herbicidal effect rating, ECHORC",[4]; [5],2.6
same,"herbicidal effect rating, ECHORC",[4]; [6],3.7
same,"herbicidal effect rating, ECHORC",[4]; [7],4.7
same,"herbicidal effect rating, ECHORC",[4]; [8],9.0
same,"herbicidal effect rating, ECHORC",[4]; [9],9.0
"COC(=O)CN(C(=O)c1nsc2ccc(-n3c(=O)cc(C(F)(F)F)n(C)c3=O)cc12)S(=O)(=O)Cc1ccccc1 [Example 441, Glycine, N-(benzylsulfonyl)-N-{{5-[3,6-dihydro-3-methyl-2,6-dioxo-4-(trifluoromethyl)-1(2H)-pyrimidinyl]-1,2-benzisothiazol-3-yl}carbonyl}-, methyl ester]",MOOVA,[1]; [15],9.0
same,MOOVA,[1]; [16],9.0
same,MOOVA,[1]; [17],9.0
same,MOOVA,[1]; [18],9.0
same,CYPSE,[2]; [16],0.0
same,CYPSE,[2]; [17],4.0
same,CYPSE,[2]; [18],7.0
same,CYPIR,Cyperus iria; [15],4.0
same,CYPIR,Cyperus iria; [16],6.0
same,CYPIR,Cyperus iria; [17],9.0
same,CYPIR,Cyperus iria; [18],9.0
same,ORYSAT,[3]; 0.0320 kg/ha,0.0
same,ORYSAT,[3]; 0.0620 kg/ha,0.0
same,ORYSAT,[3]; 0.1250 kg/ha,2.0
same,ORYSAT,[3]; 0.2500 kg/ha,3.0
same,SAGPY,"Sagittaria pygmaea, L.; [15]",0.0
same,SAGPY,"Sagittaria pygmaea, L.; [16]",2.0
same,SAGPY,"Sagittaria pygmaea, L.; [17]",3.0
same,SAGPY,"Sagittaria pygmaea, L.; [18]",6.0
same,ECHORC,[4]; [15],0.0
same,ECHORC,[4]; [16],0.0
same,ECHORC,[4]; [17],0.0
same,ECHORC,[4]; [18],3.0
"Cn1c(C(F)(F)F)cc(=O)n(-c2ccc3snc(-c4ccccc4OCC(N)=O)c3c2)c1=O [Example 563, Acetamide, 2-{o-{5-[3,6-dihydro-3-methyl-2,6-dioxo-4-(trifluoromethyl)-1(2H)-pyrimidinyl]-1,2-benzisothiazol-3-yl}phenoxy}-]","herbicidal effect rating, MOOVA",[1]; [5],8.0
same,"herbicidal effect rating, MOOVA",[1]; [6],9.0
same,"herbicidal effect rating, MOOVA",[1]; [7],9.0
same,"herbicidal effect rating, MOOVA",[1]; [8],9.0
same,"herbicidal effect rating, MOOVA",[1]; [9],9.0
same,"herbicidal effect rating, CYPSE",[2]; [5],0.0
same,"herbicidal effect rating, CYPSE",[2]; [6],0.0
same,"herbicidal effect rating, CYPSE",[2]; [7],0.0
same,"herbicidal effect rating, CYPSE",[2]; [8],4.0
same,"herbicidal effect rating, CYPSE",[2]; [9],0.0
same,"herbicidal effect rating, CYPIR",Cyperus iria; [5],0.0
same,"herbicidal effect rating, CYPIR",Cyperus iria; [6],2.0
same,"herbicidal effect rating, CYPIR",Cyperus iria; [7],6.0
same,"herbicidal effect rating, CYPIR",Cyperus iria; [8],6.0
same,"herbicidal effect rating, CYPIR",Cyperus iria; [9],9.0
same,herbicidal effect rating ORYSAT,[3]; [10],4.0
same,herbicidal effect rating ORYSAT,[3]; [11],7.0
same,herbicidal effect rating ORYSAT,[3]; [12],7.0
same,herbicidal effect rating ORYSAT,[3]; [13],7.0
same,herbicidal effect rating ORYSAT,[3]; [14],4.0
same,"herbicidal effect rating, SAGPY","Sagittaria pygmaea, L.; [5]",0.0
same,"herbicidal effect rating, SAGPY","Sagittaria pygmaea, L.; [6]",0.0
same,"herbicidal effect rating, SAGPY","Sagittaria pygmaea, L.; [7]",0.0
same,"herbicidal effect rating, SAGPY","Sagittaria pygmaea, L.; [8]",2.0
same,"herbicidal effect rating, SAGPY","Sagittaria pygmaea, L.; [9]",4.0
same,"herbicidal effect rating, ECHORC",[4]; [5],3.6
same,"herbicidal effect rating, ECHORC",[4]; [6],5.1
same,"herbicidal effect rating, ECHORC",[4]; [7],5.6
same,"herbicidal effect rating, ECHORC",[4]; [8],9.0
same,"herbicidal effect rating, ECHORC",[4]; [9],9.0
"COC(=O)CN(Cc1nsc2ccc(-n3c(=O)cc(C(F)(F)F)n(C)c3=O)cc12)S(C)(=O)=O [Example 306, Glycine, N-{{5-[3,6-dihydro-3-methyl-2,6-dioxo-4-(trifluoromethyl)-1(2H)-pyrimidinyl]-1,2-benzisothiazol-3-yl}methyl}-N-(methylsulfonyl)-, methyl ester]","herbicidal effect rating, MOOVA",[1]; [19],0.0
same,"herbicidal effect rating, CYPSE",[2]; [19],0.0
same,"herbicidal effect rating, CYPIR",Cyperus iria; [19],0.0
same,herbicidal effect rating ORYSAT,[3]; [20],0.0
same,"herbicidal effect rating, SAGPY","Sagittaria pygmaea, L.; [19]",0.0
same,"herbicidal effect rating, ECHORC",[4]; [19],0.0
"COc1ccccc1C=C(C#N)c1nsc2ccc(-n3c(=O)cc(C(F)(F)F)n(C)c3=O)cc12 [Example 599, 1,2-Benzisothiazole-3-acetonitrile, 5-[3,6-dihydro-3-methyl-2,6-dioxo-4-(trifluoromethyl)-1(2H)-pyrimidinyl]-alpha-(o-methoxybenzylidene)-]","herbicidal effect rating, MOOVA",[1]; [21],6.0
same,"herbicidal effect rating, MOOVA",[1]; [22],7.0
same,"herbicidal effect rating, MOOVA",[1]; [23],7.0
same,"herbicidal effect rating, CYPSE",[2]; [22],0.0
same,"herbicidal effect rating, CYPSE",[2]; [23],0.0
same,"herbicidal effect rating, CYPIR",Cyperus iria; [21],0.0
same,"herbicidal effect rating, CYPIR",Cyperus iria; [22],0.0
same,"herbicidal effect rating, CYPIR",Cyperus iria; [23],3.0
same,herbicidal effect rating ORYSAT,"[3]; Rate 0.0320 kg/ha, rated three to four weeks after treatment",2.0
same,herbicidal effect rating ORYSAT,"[3]; Rate 0.0620 kg/ha, rated three to four weeks after treatment",3.0
same,herbicidal effect rating ORYSAT,"[3]; Rate 0.1250 kg/ha, rated three to four weeks after treatment",3.0
same,herbicidal effect rating ORYSAT,[3]; [20],5.0
same,"herbicidal effect rating, SAGPY","Sagittaria pygmaea, L.; [21]",0.0
same,"herbicidal effect rating, SAGPY","Sagittaria pygmaea, L.; [22]",0.0
same,"herbicidal effect rating, SAGPY","Sagittaria pygmaea, L.; [24]",0.0
same,"herbicidal effect rating, SAGPY","Sagittaria pygmaea, L.; [23]",0.0
same,"herbicidal effect rating, ECHORC",[4]; [21],0.0
same,"herbicidal effect rating, ECHORC",[4]; [22],0.0
same,"herbicidal effect rating, ECHORC",[4]; [24],0.0
same,"herbicidal effect rating, ECHORC",[4]; [23],4.0
"COCCOC(=O)C(C)(C)Oc1ccc(C)cc1-c1nsc2ccc(-n3c(=O)cc(C(F)(F)F)n(C)c3=O)cc12 [Example 546, Propionic acid, 2-{{2-{5-[3,6-dihydro-3-methyl-2,6-dioxo-4-(trifluoromethyl)-1(2H)-pyrimidinyl]-1,2-benzisothiazol-3-yl}-p-tolyl}oxy}-2-methyl-, 2-methoxyethyl ester]","herbicidal effect rating, MOOVA",[1]; [5],6.0
same,"herbicidal effect rating, MOOVA",[1]; [6],7.0
same,"herbicidal effect rating, MOOVA",[1]; [7],7.0
same,"herbicidal effect rating, MOOVA",[1]; [8],9.0
same,"herbicidal effect rating, MOOVA",[1]; [9],9.0
same,"herbicidal effect rating, CYPSE",[2]; [5],0.0
same,"herbicidal effect rating, CYPSE",[2]; [6],0.0
same,"herbicidal effect rating, CYPSE",[2]; [7],9.0
same,"herbicidal effect rating, CYPSE",[2]; [8],9.0
same,"herbicidal effect rating, CYPSE",[2]; [9],0.0
same,"herbicidal effect rating, CYPIR",Cyperus iria; [5],3.0
same,"herbicidal effect rating, CYPIR",Cyperus iria; [6],4.0
same,"herbicidal effect rating, CYPIR",Cyperus iria; [7],6.0
same,"herbicidal effect rating, CYPIR",Cyperus iria; [8],9.0
same,"herbicidal effect rating, CYPIR",Cyperus iria; [9],2.0
same,herbicidal effect rating ORYSAT,[3]; [10],2.0
same,herbicidal effect rating ORYSAT,[3]; [11],3.0
same,herbicidal effect rating ORYSAT,[3]; [12],4.0
same,herbicidal effect rating ORYSAT,[3]; [13],7.0
same,herbicidal effect rating ORYSAT,[3]; [14],6.0
same,"herbicidal effect rating, SAGPY","Sagittaria pygmaea, L.; [5]",0.0
same,"herbicidal effect rating, SAGPY","Sagittaria pygmaea, L.; [6]",0.0
same,"herbicidal effect rating, SAGPY","Sagittaria pygmaea, L.; [7]",4.0
same,"herbicidal effect rating, SAGPY","Sagittaria pygmaea, L.; [8]",9.0
same,"herbicidal effect rating, SAGPY","Sagittaria pygmaea, L.; [9]",9.0
same,"herbicidal effect rating, ECHORC",[4]; [5],4.1
same,"herbicidal effect rating, ECHORC",[4]; [6],4.3
same,"herbicidal effect rating, ECHORC",[4]; [7],4.6
same,"herbicidal effect rating, ECHORC",[4]; [8],9.0
same,"herbicidal effect rating, ECHORC",[4]; [9],9.0
